Structures can show the parent of a compound that is named as a salt.
Columns and labels:
[1] = molecular target: BRD4-BD1 (Homo sapiens (Human), UniProt O60885); experiment: BRD4 AlphaScreen assay, BRD4-BD1; format: binding; details: H4Ac4 peptide, 75 min, room temperature, read-out: BRD4 BD-1 enzyme IC50
Description: (§1) BRD4-BD1 and BRD4-BD2 assays were conducted in white 384-well polystyrene plate in a final volume of 20 μL for BD1 and 40 μL for BD2. Inhibitors were first serially diluted in DMSO and added to the plate wells before the addition of other reaction components. […] After plate sealing, the plate was incubated in the dark at room temperature for 75 min. before reading on a PHERAstar FS plate reader (BMG Labtech). IC50 determination was performed by fitting the curve of percent control activity versus the log of the inhibitor concentration using the GraphPad Prism 5.0 software.

[2] = molecular target: BRD4-BD2 (Homo sapiens (Human), UniProt O60885); experiment: BRD4 AlphaScreen assay, BRD4-BD2; format: binding; details: H4Ac4 peptide, 75 min, room temperature, read-out: BRD4 BD-2 enzyme IC50
Description: as §1

[3] = system: KMS.12.BM cells; experiment: KMS.12.BM cell viability assay (Cell Titer-GLO, ATP quantitation); format: cell-based; details: Homo sapiens, 72 h, 3 days, concentration required for 50% cell death, read-out: KMS cellular IC50
Description: KMS.12.BM cell line (human myeloma) was purchased from JCRB (Osaka, Japan) and maintained in RPMI with 10% FBS culture medium. To measure the cytotoxic activity of the compounds through ATP quantitation, the KMS.12.BM cells are plated in the RPMI culture medium at 5000 cells/well/per 100 μL into a 96-well polystyrene clear black tissue culture plate (Greiner-bio-one through VWR, NJ), in the presence or absence of a concentration range of test compounds. After 3 days, […] Cell Titer-GLO Luminescent (Promega, Madison, Wis.) cell culture agent is added to each well for 10 minutes at room temperature to stabilize the luminescent signal. This determines the number of viable cells in culture based on quantitation of the ATP present, which signals the presence of metabolically active cells. Luminescence is measured with the Top Count 384 (Packard Bioscience through Perkin Elmer, Boston, Mass.). Compound inhibition is determined relative to cells cultured with no drug and the IC50 is reported as the compound concentration required for 50% cell death. IC50 data for the Examples is presented in Table 9 as determined by Assay B1.

[4] = system: C-myc; experiment: KMS.12.BM C-myc ELISA assay; format: cell-based; details: Homo sapiens; KMS.12.BM cells, 2 hours, concentration required for 50% C-myc inhibition
Description: KMS.12.BM cell line (human myeloma) was purchased from JCRB (Osaka, Japan) and maintained in RPMI with 10% FBS culture medium. To measure the C-myc inhibitory activity of the compounds, the KMS.12.BM cells are plated in the RPMI culture medium at 75000 cells/well/per 200 μL into a 96-well flat bottom polystyrene tissue culture plate (Corning through VWR, NJ), in the presence or absence of a concentration range of test compounds. After 2 hours, cell are pelleted and lysed with Cell Extraction Buffer (BioSource, Carlsbad, Calif.) in the presence of protease inhibitors (Life Technologies, Grand Island, N.Y. and Sigma, St Louis, Mo.). Clarified lyses are tested in a C-myc commercial ELISA (Life Technologies, Grand Island, N.Y.). Compound inhibition is determined relative to cells cultured with no drug and the IC50 is reported as the compound concentration required for 50% C-myc inhibition. IC50 data for the Examples is presented in Table 10 as determined by Assay C1.

In the case of `Cn1cc(-c2ccc3oc(CNS(C)(=O)=O)nc3c2Oc2ccccc2)c2cc[nH]c2c1=O` [Example 105, N-{[5-(6-Methyl-7-oxo-6,7-dihydro-1H-pyrrolo[2,3-c]pyridin-4-yl)-4-phenoxy-1,3-benzoxazol-2-yl]methyl}methanesulfonamide], the IC50 [1] is reported as under 0.1 µM, the IC50 [2] is reported as under 0.1 µM and the IC50 [3] is reported as at most 1 µM. For the same molecule, the IC50 [4] was at most 1 µM.

In the case of `Cn1cc(-c2ccc3oc(CNC(=O)CC4CCCC4)nc3c2Oc2ccccc2)c2cc[nH]c2c1=O` [Example 109, 2-Cyclopentyl-N-{[5-(6-methyl-7-oxo-6,7-dihydro-1H-pyrrolo[2,3-c]pyridin-4-yl)-4-phenoxy-1,3-benzoxazol-2-yl]methyl}acetamide], the IC50 [1] is reported as under 0.1 µM, the IC50 [2] is reported as under 0.1 µM and the IC50 [3] is reported as at most 1 µM. For the same molecule, the IC50 [4] was 1 to 10 µM.

For `Cn1cc(-c2ccc3c([nH]c(=O)n3C)c2OCC2CCCC2)c2cc[nH]c2c1=O` [Example 92, 4-(Cyclopentylmethoxy)-1-methyl-5-(6-methyl-7-oxo-6,7-dihydro-1H-pyrrolo[2,3-c]pyridin-4-yl)-1,3-dihydro-2H-benzimidazol-2-one], the IC50 [1] was under 0.1 µM, the IC50 [2] was under 0.1 µM and the IC50 [3] was at most 1 µM. It also gave an IC50 [4] of at most 1 µM.

In the case of `COc1c(-c2cn(C)c(=O)c3[nH]ccc23)ccc2c1n(CCCC#N)c(=O)n2C` [Example 53, 4-[7-Methoxy-3-methyl-6-(6-methyl-7-oxo-6,7-dihydro-1H-pyrrolo[2,3-c]pyridin-4-yl)-2-oxo-2,3-dihydro-1H-benzimidazol-1-yl]butanenitrile], the IC50 [1] is reported as 0.1 to 1 µM, the IC50 [2] is reported as under 0.1 µM and the IC50 [3] is reported as at most 1 µM. The IC50 [4] was at most 1 µM.

Molecule `Cn1cc(-c2ccc3c([nH]c(=O)n3C)c2Oc2ccccc2)c2cc[nH]c2c1=O` [Example 38, 1-Methyl-5-(6-methyl-7-oxo-6,7-dihydro-1H-pyrrolo[2,3-c]pyridin-4-yl)-4-phenoxy-1,3-dihydro-2H-benzimidazol-2-one] has an IC50 [1] of under 0.1 µM, an IC50 [2] of under 0.1 µM and an IC50 [3] of at most 1 µM. The IC50 [4] was at most 1 µM.

Molecule `Cn1cc(-c2ccc3ncn(Cc4ccccc4)c3c2Oc2ccccc2)c2cc[nH]c2c1=O` [Example 45, 4-(1-Benzyl-7-phenoxy-1H-benzimidazol-6-yl)-6-methyl-1,6-dihydro-7H-pyrrolo[2,3-c]pyridin-7-one] has an IC50 [1] of under 0.1 µM, an IC50 [2] of under 0.1 µM and an IC50 [3] of at most 1 µM. For the same molecule, the IC50 [4] was at most 1 µM.

With `Cc1nc2c(OCC3CC3)c(-c3cn(C)c(=O)c4[nH]ccc34)ccc2[nH]1` [Example 13, 4-[4-(Cyclopropylmethoxy)-2-methyl-1H-benzimidazol-5-yl]-6-methyl-1,6-dihydro-7H-pyrrolo[2,3-c]pyridin-7-one] the IC50 [1] was under 0.1 µM, the IC50 [2] was under 0.1 µM and the IC50 [3] was at most 1 µM. The IC50 [4] was at most 1 µM.

`Cn1cc(-c2ccc3c([nH]c(=O)n3C)c2OC2CCC2)c2cc[nH]c2c1=O` [Example 89, 4-(Cyclobutyloxy)-1-methyl-5-(6-methyl-7-oxo-6,7-dihydro-1H-pyrrolo[2,3-c]pyridin-4-yl)-1,3-dihydro-2H-benzimidazol-2-one] gave an IC50 [1] of under 0.1 µM, an IC50 [2] of under 0.1 µM and an IC50 [3] of at most 1 µM. The IC50 [4] was at most 1 µM.

Work on `Cn1cc(-c2ccc3c(c2OCC2CCC2)n(Cc2ccccc2)c(=O)n3C)c2cc[nH]c2c1=O` [Example 64, 3-Benzyl-4-(cyclobutylmethoxy)-1-methyl-5-(6-methyl-7-oxo-6,7-dihydro-1H-pyrrolo[2,3-c]pyridin-4-yl)-1,3-dihydro-2H-benzimidazol-2-one] yielded an IC50 [1] of under 0.1 µM, an IC50 [2] of under 0.1 µM and an IC50 [3] of at most 1 µM. For the same molecule, the IC50 [4] was at most 1 µM.

Molecule `Cn1cc(-c2ccc3c(cnn3C)c2OCC2CC2)c2cc[nH]c2c1=O` [Example 76, 4-[4-(Cyclopropylmethoxy)-1-methyl-1H-indazol-5-yl]-6-methyl-1,6-dihydro-7H-pyrrolo[2,3-c]pyridin-7-one] has an IC50 [1] of under 0.1 µM, an IC50 [2] of under 0.1 µM and an IC50 [3] of at most 1 µM. It also gave an IC50 [4] of at most 1 µM.

`Cn1cc(-c2ccc3[nH]cnc3c2OCC2CC2)c2cc[nH]c2c1=O` [Example 12, 4-[4-(Cyclopropylmethoxy)-1H-benzimidazol-5-yl]-6-methyl-1,6-dihydro-7H-pyrrolo[2,3-c]pyridin-7-one] gave an IC50 [1] of under 0.1 µM, an IC50 [2] of under 0.1 µM and an IC50 [3] of at most 1 µM. It also gave an IC50 [4] of at most 1 µM.

Work on `Cn1cc(-c2ccc3[nH]c(=O)[nH]c3c2Oc2ccc(F)cc2F)c2cc[nH]c2c1=O` [Example 1, 4-(2,4-Difluorophenoxy)-5-(6-methyl-7-oxo-6,7-dihydro-1H-pyrrolo[2,3-c]pyridin-4-yl)-1,3-dihydro-2H-benzimidazol-2-one] yielded an IC50 [1] of under 0.1 µM, an IC50 [2] of under 0.1 µM and an IC50 [3] of at most 1 µM. The IC50 [4] was at most 1 µM.

Molecule `Cn1cc(-c2ccc3c([nH]c(=O)n3C)c2OC2CCOCC2)c2cc[nH]c2c1=O` [Example 29, 1-Methyl-5-(6-methyl-7-oxo-6,7-dihydro-1H-pyrrolo[2,3-c]pyridin-4-yl)-4-(tetrahydro-2H-pyran-4-yloxy)-1,3-dihydro-2H-benzimidazol-2-one] has an IC50 [1] of under 0.1 µM, an IC50 [2] of under 0.1 µM and an IC50 [3] of at most 1 µM. It also gave an IC50 [4] of at most 1 µM.

`Cn1cc(-c2ccc3c([nH]c(=O)n3C)c2OCC2CC2)c2cc[nH]c2c1=O` [Example 74, 4-(Cyclopropylmethoxy)-1-methyl-5-(6-methyl-7-oxo-6,7-dihydro-1H-pyrrolo[2,3-c]pyridin-4-yl)-1,3-dihydro-2H-benzimidazol-2-one] showed an IC50 [1] of under 0.1 µM, an IC50 [2] of under 0.1 µM and an IC50 [3] of at most 1 µM. For the same molecule, the IC50 [4] was at most 1 µM.

For `Cc1nc2c(Oc3ccc(F)cc3F)c(-c3cn(C)c(=O)c4[nH]ccc34)ccc2[nH]1` [Example 3, 4-[4-(2,4-Difluorophenoxy)-2-methyl-1H-benzimidazol-5-yl]-6-methyl-1,6-dihydro-7H-pyrrolo[2,3-c]pyridin-7-one trifluoroacetate], the IC50 [1] was under 0.1 µM, the IC50 [2] was under 0.1 µM and the IC50 [3] was at most 1 µM. For the same molecule, the IC50 [4] was at most 1 µM.

`Cn1cc(-c2ccc3c(nc(CNC(=O)C4CC4)n3C)c2Oc2ccccc2)c2cc[nH]c2c1=O` [Example 112, N-{[1-Methyl-5-(6-methyl-7-oxo-6,7-dihydro-1H-pyrrolo[2,3-c]pyridin-4-yl)-4-phenoxy-1H-benzimidazol-2-yl]methyl}cyclopropanecarboxamide] was tested, and the IC50 [1] was under 0.1 µM, the IC50 [2] was under 0.1 µM and the IC50 [3] was at most 1 µM.

In the case of `CNC(=O)Cn1cnc2ccc(-c3cn(C)c(=O)c4[nH]ccc34)c(Oc3ccc(F)cc3F)c21` [Example 35, 2-[7-(2,4-Difluorophenoxy)-6-(6-methyl-7-oxo-6,7-dihydro-1H-pyrrolo[2,3-c]pyridin-4-yl)-1H-benzimidazol-1-yl]-N-methylacetamide], the IC50 [1] is reported as under 0.1 µM, the IC50 [2] is reported as under 0.1 µM and the IC50 [3] is reported as at most 1 µM.

`Cn1cc(-c2ccc3c(c2OCC2CCC2)n(CCN2CCN(S(C)(=O)=O)CC2)c(=O)n3C)c2cc[nH]c2c1=O` [Example 67, 4-(Cyclobutylmethoxy)-1-methyl-5-(6-methyl-7-oxo-6,7-dihydro-1H-pyrrolo[2,3-c]pyridin-4-yl)-3-{2-[4-(methylsulfonyl)piperazin-1-yl]ethyl}-1,3-dihydro-2H-benzimidazol-2-one] was tested, and the IC50 [1] was under 0.1 µM, the IC50 [2] was under 0.1 µM and the IC50 [3] was at most 1 µM.

In the case of `Cn1cc(-c2cc(CNCc3ccccc3)c3[nH]c(=O)[nH]c3c2Oc2ccc(F)cc2F)c2cc[nH]c2c1=O` [Example 80, 7-[(Benzylamino)methyl]-4-(2,4-difluorophenoxy)-5-(6-methyl-7-oxo-6,7-dihydro-1H-pyrrolo[2,3-c]pyridin-4-yl)-1,3-dihydro-2H-benzimidazol-2-one], the IC50 [1] is reported as under 0.1 µM, the IC50 [2] is reported as under 0.1 µM and the IC50 [3] is reported as at most 1 µM.

Work on `Cn1cc(-c2ccc3c(c2Oc2ccccc2)NC(=O)C(C)(C)O3)c2cc[nH]c2c1=O` [Example 95, 2,2-Dimethyl-6-(6-methyl-7-oxo-6,7-dihydro-1H-pyrrolo[2,3-c]pyridin-4-yl)-5-phenoxy-2H-1,4-benzoxazin-3(4H)-one] yielded an IC50 [1] of under 0.1 µM, an IC50 [2] of under 0.1 µM and an IC50 [3] of at most 1 µM.

With `Cn1cc(-c2ccc3[nH]c(=O)[nH]c3c2OC2CCC(F)(F)CC2)c2cc[nH]c2c1=O` [Example 23, 4-[(4,4-Difluorocyclohexyl)oxy]-5-(6-methyl-7-oxo-6,7-dihydro-1H-pyrrolo[2,3-c]pyridin-4-yl)-1,3-dihydro-2H-benzimidazol-2-one] the IC50 [1] was under 0.1 µM, the IC50 [2] was under 0.1 µM and the IC50 [3] was at most 1 µM.

— patent US9918990B2, “Substituted pyrrolo[2,3-c]pyridines and pyrazolo[3,4-c]pyridines as BET protein inhibitors” (Incyte Corporation, priority 2013, dated 2018)
